Data from patent EP4361157A1, “FUSED TETRACYCLIC COMPOUND, PREPARATION METHOD THEREFOR AND APPLICATION THEREOF IN MEDICINE” (Jiangsu Hengrui Pharmaceuticals Co., Ltd., priority 2021, dated 2022).

Experiments:
GP2d cells = assay: Inhibition of 3D proliferation of GP2d cells (CellTiter-Glo 3D); type: cell-based; conditions: 120 h incubation
Experimental: GP2d cells (Nanjing Cobioer, CBP60010) were cultured in a complete medium, namely DMEM/high glucose medium (Hyclone, SH30243.01) containing 10% fetal bovine serum (Corning, 35-076-CV). On the first day of the experiment, GP2d cells were seeded into a 96-well low adsorption plate (Corning, CLS7007-24EA) with complete medium at a density of 1,000 cells/well to form 90 µL of cell suspension per well. The plate was centrifuged at 2,000 rpm for 5 min at room temperature and then incubated overnight in a cell incubator at 37 °C with 5% CO2.
The next day, 10 µL of serially-diluted test compound prepared from the complete medium was added to each well. The final concentrations of the compound of GP2d cells were 9 concentration points obtained by 3-fold serial dilution from 1 µM, and the final concentrations of the compound of AGS cells were 9 concentration points obtained by 3-fold serial dilution from 10 µM. A blank control containing 0.5% DMSO was set. The well plate was incubated in a cell incubator at 37 °C with 5% CO2 for 120 h. On the seventh day, the 96-well cell culture plate was taken out, 50 µL CellTiter-Glo® 3D reagent (Promega, G9682) was added into each well, the plate was shaken at room temperature for 25 min, pipetted and mixed well, 50 µL of the solution was transferred into a white impermeable 96-well plate (PE, 6005290), and the luminescence signal values were read using a multifunctional microplate reader (PerkinElmer, ENVISION).
Table 2. Inhibitory activity data for 3D proliferation of AGS and GP2d cells

AGS cells = assay: Inhibition of ERK phosphorylation of AGS cells (HTRF method); type: cell-based; conditions: phosphorylated ERK/total ERK ratio, 1 h incubation
Experimental: AGS cells (Nanjing Cobioer, CBP60476) were cultured in RPMI1640 (Hyclone, SH30809.01) complete medium containing 10% fetal bovine serum. On the first day of the experiment, the AGS cells were seeded into a 96-well plate with complete medium at a density of 40,000 cells/well to form 190 µL of cell suspension per well. The plate was incubated overnight in a cell incubator at 37 °C with 5% CO2.
The next day, 10 µL of serially-diluted test compound prepared from the complete medium was added to each well. The final concentrations of the compound were 9 concentration points obtained by 5-fold serial dilution from 10 µM. A blank control containing 0.5% DMSO was set. The well plate was incubated in a cell incubator at 37 °C with 5% CO2 for 1 h. After completion of incubation, the 96-well cell culture plate was taken out, the medium was removed by pipetting, 200 µL PBS (Shanghai BasalMedia Technologies Co., Ltd., B320) was added to each well, and the cells were washed once. PBS was removed by pipetting, 50 µL of lysis buffer (Cisbio, 64KL1FDF) containing a blocking solution (blocking reagent, Cisbio, 64KB1AAC) was added to each well, and the well plate was lysed on a shaker for 40 min at room temperature with shaking. After lysis, the lysate was pipetted and mixed well, 16 µL of lysate was transferred to two HTRF 96-well assay plates (Cisbio, 66PL96100) per well, and then 4 µL of premixed phosphorylated ERK1/2 antibody solution (Cisbio, 64AERPEG) or 4 µL of premixed total ERK1/2 antibody solution (Cisbio, 64NRKPEG) was added to these two plates. The microplate was sealed with a sealing membrane, centrifuged for 1 min in a microplate centrifuge, and incubated overnight at room temperature in the dark. On the third day, the fluorescence values at an excitation wavelength of 337 nm and at emission wavelengths of 665 nm and 620 nm were read using an ENVISION multifunctional microplate reader (PerkinElmer, ENVISION).
Table 1. Inhibitory activity data for ERK phosphorylation of AGS cells

Work on `CCc1cccc2cc(O)cc(-c3cc4nc(OC[C@@]56CCCN5C[C@H](F)C6)nc5c4c(n3)OCC3C4CCC(CN53)N4)c12` (mixture of isomers) [Diastereomeric (1:1) mixture of 2-p1 and 2-p2] yielded an IC50 (GP2d cells) of 19.9 nM and an IC50 (AGS cells; Homo sapiens, AGS) of 6.6 nM.

`Oc1cc(-c2cc3nc(OC[C@@]45CCCN4C[C@H](F)C5)nc4c3c(n2)OCC2C3CCC(CN42)N3)c2c(F)cccc2c1` (single isomer, unassigned) [Diastereomeric (1:1) mixture of 1-p1 and 1-p2] was tested, and the IC50 (AGS cells) was 94.1 nM.

`CCc1cccc2cc(O)cc(-c3nc4c5c(nc(OC[C@@]67CCCN6C[C@H](F)C7)nc5c3F)N3CC5CCC(N5)C3CO4)c12` (single isomer, unassigned) [Diastereomeric (1:1) mixture of 4-p1 and 4-p2] was tested, and the IC50 (AGS cells) was 1.35 nM.

In the case of `CCc1cccc2cc(O)cc(-c3cc4c5c(nc(OC[C@@]67CCCN6C[C@H](F)C7)nc5c3F)N3CC5CCC(N5)C3CO4)c12` (single isomer, unassigned) [Diastereomeric (1:1) mixture of 11-p1 and 11-p2], the IC50 (GP2d cells) is reported as 62.5 nM and the IC50 (AGS cells) is reported as 15.6 nM.

`CCc1cccc2cc(O)cc(-c3nc4c5c(nc(OC[C@@]67CCCN6C[C@H](F)C7)nc5c3F)N3C[C@@H]5CC[C@@H](N5)[C@@H]3CO4)c12` [Example 4-p2, 5-Ethyl-4-((5aR,6R,9S)-1-fluoro-12-(((2R,7aS)-2-fluorotetrahydro-1H-pyrrolizin-7a(5H )-yl)methoxy)-5a,6,7,8,9,10-hexahydro-5H-4-oxa-3,10a,11,13,14-pentaaza-6,9-methanonaphtho[1,8-ab]heptalen-2-yl)naphthalen-2-ol] gave an IC50 (AGS cells; Homo sapiens, AGS) of 86.5 nM.

In the case of `CCc1c(F)ccc2cc(O)cc(-c3nc4c5c(nc(OC[C@@]67CCCN6C[C@H](F)C7)nc5c3F)N3C[C@@H]5CC[C@@H](N5)[C@@H]3CO4)c12` [Example 9-p2, 5-Ethyl-6-fluoro-4-((5aR,6R,9S)-1-fluoro-12-(((2R,7aS)-2-fluorotetrahydro-1H-pyrrolizin-7a(5H)-yl)methoxy)-5a,6,7,8,9,10-hexahydro-5H-4-oxa-3,10a,11,13,14-pentaaza-6,9-methanonaphtho[1,8-ab]heptalen-2-yl)naphthalen-2-ol], the IC50 (AGS cells; Homo sapiens, AGS) is reported as 60.4 nM.

`Oc1cc(Cl)c(C(F)(F)F)c(-c2nc3c4c(nc(OC[C@@]56CCCN5C[C@H](F)C6)nc4c2F)N2C[C@H]4CC[C@H](N4)[C@H]2CO3)c1` [Example 14-p1, 3-Chloro-5-((5aS,6S,9R)-1-fluoro-12-(((2R,7aS)-2-fluorotetrahydro-1H-pyrrolizin-7a(5 H)-yl)methoxy)-5a,6,7,8,9,10-hexahydro-5H-4-oxa-3,10a,11,13,14-pentaaza-6,9-methanonaphtho[1,8-ab]heptalen-2-yl)-4-(trifluoromethyl)phenol] was tested, and the IC50 (AGS cells; Homo sapiens, AGS) was 20.2 nM.

In the case of `CCc1c(F)ccc2cc(O)cc(-c3nc4c5c(nc(OCC6(CN7CCC[C@@H]7CO)CC6)nc5c3F)N3C[C@H]5CC[C@H](N5)[C@H]3CO4)c12` [Example 15, 5-Ethyl-6-fluoro-4-((5aS,6S,9R)-1-fluoro-12-((1-(((R)-2-(hydroxymethyl)pyrrolidin-1-yl)methyl)cyclopropyl)methoxy)-5a,6,7,8,9,10-hexahydro-5H-4-oxa-3,10a,11,13,14-pentaaza-6,9-methanonaphtho[1,8-ab]heptalen-2-yl)naphthalen-2-ol], the IC50 (GP2d cells) is reported as 7.2 nM and the IC50 (AGS cells; Homo sapiens, AGS) is reported as 13.4 nM.

Molecule `CCc1c(F)ccc2cc(O)cc(-c3nc4c5c(nc(OCC6(CN7CC=C[C@@H]7CO)CC6)nc5c3F)N3C[C@H]5CC[C@H](N5)[C@H]3CO4)c12` [Example 16, 5-Ethyl-6-fluoro-4-((5aS,6S,9R)-1-fluoro-12-((1-(((R)-2-(hydroxymethyl)-2,5-dihydro-1 H-pyrrol-1-yl)methyl)cyclopropyl)methoxy)-5a,6,7,8,9,10-hexahydro-5H-4-oxa-3,10a, 1 1,13,14-pentaaza-6,9-methanonaphtho[1,8-ab]heptalen-2-yl)naphthalen-2-ol] has an IC50 (GP2d cells) of 10.1 nM and an IC50 (AGS cells; Homo sapiens, AGS) of 11.6 nM.

`CCc1c(F)ccc2cc(O)cc(-c3nc4c5c(nc(OCC6(CN7CC=C[C@H]7CO)CC6)nc5c3F)N3C[C@H]5CC[C@H](N5)[C@H]3CO4)c12` [Example 18, 5-Ethyl-6-fluoro-4-((5aS,6S,9R)-1-fluoro-12-((1-(((S)-2-(hydroxymethyl)-2,5-dihydro-1 H-pyrrol-1-yl)methyl)cyclopropyl)methoxy)-5a,6,7,8,9,10-hexahydro-5H-4-oxa-3,10a, 1 1,13,14-pentaaza-6,9-methanonaphtho[1,8-ab]heptalen-2-yl)naphthalen-2-ol] showed an IC50 (GP2d cells) of 39.3 nM and an IC50 (AGS cells; Homo sapiens, AGS) of 10.5 nM.

`CCc1c(F)ccc2cc(O)cc(-c3nc4c5c(nc(OCC6(CN7C[C@@H]8C[C@@H]8[C@@H]7CO)CC6)nc5c3F)N3C[C@H]5CC[C@H](N5)[C@H]3CO4)c12` [Example 19, 5 -Ethyl-6-fluoro-4-((5aS,6S,9R)-1-fluoro-12-((1-(((1S,2R,5R)-2-(hydroxymethyl)-3-azabicyclo[3.1.0]hex-3-yl)methyl)cyclopropyl)methoxy)-5a,6,7,8,9,10-hexahydro-5H-4-oxa-3,10a,11,13,14-pentaaza-6,9-methanonaphtho[1,8-ab]heptalen-2-yl)naphthalen-2-ol] was tested, and the IC50 (GP2d cells) was 28.9 nM and the IC50 (AGS cells; Homo sapiens, AGS) was 31.1 nM.

`CCc1c(F)ccc2cc(O)cc(-c3nc4c5c(nc(OCC6(CN7C[C@@H]8C[C@@H]8[C@H]7CO)CC6)nc5c3F)N3C[C@H]5CC[C@H](N5)[C@H]3CO4)c12` [Example 20, 5 -Ethyl-6-fluoro-4-((5aS,6S,9R)-1-fluoro-12-((1-(((1S,2S,5R)-2-(hydroxymethyl)-3-azabicyclo[3.1.0]hex-3-yl)methyl)cyclopropyl)methoxy)-5a,6,7,8,9,10-hexahydro-5H-4-oxa-3,10a,11,13,14-pentaaza-6,9-methanonaphtho[1,8-ab]heptalen-2-yl)naphthalen-2-ol] was tested, and the IC50 (GP2d cells) was 8.8 nM and the IC50 (AGS cells; Homo sapiens, AGS) was 14 nM.

Work on `CCc1c(F)ccc2cc(O)cc(-c3nc4c5c(nc(OCC6(CN7C[C@H]8C[C@H]8[C@@H]7CO)CC6)nc5c3F)N3C[C@H]5CC[C@H](N5)[C@H]3CO4)c12` [Example 21, 5 -Ethyl-6-fluoro-4-((5aS,6S,9R)-1-fluoro-12-((1-(((1R,2R,5S)-2-(hydroxymethyl)-3-azabicyclo[3.1.0]hex-3-yl)methyl)cyclopropyl)methoxy)-5a,6,7,8,9,10-hexahydro-5H-4-oxa-3,10a,11,13,14-pentaaza-6,9-methanonaphtho[1,8-ab]heptalen-2-yl)naphthalen-2-ol] yielded an IC50 (GP2d cells) of 14.7 nM and an IC50 (AGS cells; Homo sapiens, AGS) of 8.1 nM.

Molecule `CCc1c(F)ccc2cc(O)cc(-c3nc4c5c(nc(OCC6(CN7CCC[C@H]7COC(=O)N(C)C)CC6)nc5c3F)N3C[C@H]5CC[C@H](N5)[C@H]3CO4)c12` [Example 25, ((S)-1-((1-((((5aS,6S,9R)-2-(8-ethyl-7-fluoro-3-hydroxynaphthalen-1-yl)-1-fluoro-5a,6,7,8,9,10-hexahydro-5H-4-oxa-3,10a,11,13,14-pentaaza-6,9-methanonaphtho[1,8-ab]heptalen-12-yl)oxy)methyl)cyclopropyl)methyl)pyrrolidin-2-yl)methyl dimethylcarbamate] has an IC50 (GP2d cells) of 48.5 nM and an IC50 (AGS cells; Homo sapiens, AGS) of 23.5 nM.
